Results on five compounds are retold here after patent US6528532B1, “Urea derivatives as HIV aspartyl protease inhibitors” (Pharmacor Inc., priority 2002, dated 2003).

One data set has as its target HIV protease (Human immunodeficiency virus type 1 group M subtype B, UniProt P04585). Put plainly: Enzymatic (FRET fluorometric) assay for determining the inhibition constant (Ki) of compounds targeting the HIV protease. Type of data set: biochemical. The settings on record: Ki, FRET substrate (EDANS/DABCYL), equation of Henderson. From the text: Enzymatic Assay for Determining the Inhibition Constant (Ki) of Synthetic Compounds Targeting the HIV Protease
This is a fluorometric assay based on the cleavage by protease of a substrate carrying a donor group (EDANS) and an acceptor group (DABCYL) on each side of the cleavage site, interacting together through fluorescence resonance energy transfer (FRET) as described by Matayoshi et al. (Science 247:[…], 1990).
After calculation of Vo and Vi, the inhibition constant (Ki) of the compound is determined using the equation of Henderson: [formula]
where Vo=the enzyme's initial velocity
Vi=the enzyme velocity in the presence of the inhibitory compound,
[I]=inhibitor concentration, [S]=substrate concentration,
Km=Michaelis-Menten constant and Kiapp=apparent Ki
Graphs are traced and the Ki determined using GraphPad Prism software v. 3.0.

Another data set is described as follows: in vitro. Type of data set: cell-based. As to conditions: human. The method, then: To evaluate the EC50 of our compounds, various drug concentrations are incubated with the infected cell for six days and then the metabolic activity of the cells is monitored by the MTT assay. (See A. J. Japour et al, Antimicrobial Agents and Chemotherapy, 37, 1095-1101, 1993 and R. Pauwels et al. Journal of Virological Methods, 20, 309-321, 1988).
We use the laboratory viral strain NL4.3 as wild type virus and the cell line used is MT-4 which is a T-cell line highly sensitive to HIV-1. We also use some WT clinical strains. To address the resistance issue we assay the inhibitors with NL4.3 mutants which are designed to be resistant to specific commercially available inhibitors.
The same MTT assay is used to evaluate the CCIC50 (cell culture IC50) of our compounds except that the virus is omitted.

Usually Ki stands for a measure of affinity in units of concentration, obtained from inhibition or displacement. Read a high Ki as a looser hold on the target. One may read the IC50 as the point on the concentration scale where inhibition reaches its midpoint. A low value points to inhibition by little substance. On HIV protease, `Cc1ccc(S(=O)(=O)N(CC(C)C)[C@H](CO)CCCCNC(=O)N(Cc2ccccc2)Cc2ccc([N+](=O)[O-])cc2)cc1` [Example 61, (2S) 2-N-Isobutyl-2-N-(4-methylbenzenesulfonyl)-6-N-[N′-benzyl-N′-(4-nitrobenzyl)aminocarbonyl]-2,6-diaminohexanol] gave a Ki of 9 nM. In “in vitro”, the IC50 at 6 days is 5100 nM.

`Cc1ccc(S(=O)(=O)N(CC(C)C)[C@H](CO)CCCCNC(=O)N(Cc2ccccc2)Cc2ccccc2[N+](=O)[O-])cc1` [Example 59, (2S) 2-N-Isobutyl-2-N-(4-methylbenzenesulfonyl)-6-N-[N′-benzyl-N′-(2-nitrobenzyl)aminocarbonyl]-2,6-diaminohexanol] yielded a Ki at HIV protease of 1.7 nM. The same compound yielded an IC50 at 6 days in “in vitro” of 4600 nM.

Turning to `CC(C)CN([C@H](CO)CCCCNC(=O)N(Cc1ccccc1)Cc1ccc2c(c1)OCO2)S(=O)(=O)c1ccc(N)cc1` [Example 82, (2S) 2-N-(4-Aminobenzenesulfonyl)-2-N-isobutyl-6-N-(N′-benzyl-N′-piperonylaminocarbonyl)-2,6-diaminohexanol], at HIV protease, the Ki is 2.6 nM. This compound displayed an IC50 at 6 days in the data set “in vitro” of 12500 nM.

Regarding `CC(C)CN([C@H](CO)CCCCNC(=O)N(Cc1ccc2c(c1)OCO2)Cc1ccc2c(c1)OCO2)S(=O)(=O)c1ccc(N)cc1` [Example 85, (2S) 2-N-(4-Aminobenzenesulfonyl)-2-N-isobutyl-6-N-(N′,N′-dipiperonylaminocarbonyl)-2,6-diaminohexanol], the Ki at HIV protease is 1.7 nM. This compound registered an IC50 at 6 days in “in vitro” of 13100 nM.

As to `Cc1ccc(S(=O)(=O)N(CC(C)C)[C@H](CO)CCCCNC(=O)N(Cc2ccccc2)Cc2cccc([N+](=O)[O-])c2)cc1` [Example 60, (2S) 2-N-Isobutyl-2-N-(4-methylbenzenesulfonyl)-6-N-[N′-benzyl-N′-(3-nitrobenzyl)aminocarbonyl]-2,6-diaminohexanol], the affinity at HIV protease, expressed as Ki, was 6 nM. This compound displayed an IC50 at 6 days in “in vitro” of 4600 nM.
